Laboratory results published in ChEMBL document CHEMBL1144839, “Cytotoxic bastadin 24 from the Australian sponge Ianthella quadrangulata” (J Nat Prod, 2008).

Tested on: HUVEC
Assay: Antiangiogenic activity in HUVEC cells assessed as inhibition of hEGF-induced tubular formation at 1 ug/mL after 24 hrs relative to control
Type: functional, Homo sapiens
Parameters: scale not given: the % may be the effect or the level left

Work on O=C1N/C=C/c2ccc(c(Br)c2)Oc2cc(cc(Br)c2O)CCNC(=O)/C(=N/O)Cc2ccc(c(Br)c2)Oc2cc(cc(Br)c2O)C/C1=N\O [BASTADIN 7] yielded an Activity of 37.3%.
